Starred links: 1 amine or outer side, 2 acyl side, 3 side chain; linkers in the order of their positions; H or OH if unused. Positions of bridges follow the written chain, without caps; N, C: chain ends. Residues, ends and D or L forms follow the SMILES beside them. Chains are numbered I, II in the order given. Rhodamine110 = O=C1OC2(c3ccc(N[*:1])cc3Oc3cc(N[*:2])ccc32)c2ccccc21
Tests used:
[1] = test system: Caspase 3/7; test: Detection of apoptosis / caspase 3/7 activities in Jurkat cells, whole cell assay; assay type: cell-based; details: staurosporine 0.5 μg/ml 2 hours, 50 μM substrate 2 hours at 37° C., Ex/Em=540/620 nm
Protocol: FIG. 3. Illustrates the detection of Caspase 3/7 activities in Jurkat cells with Compound 4. Jurkat cells are seeded on the same day at 200,000 cells/90 μL/well in a Costar black wall/clear bottom 96-well plate. The cells are treated with or without 1 μM of staurosporine for 5 hours. The caspase 3/7 working solution (100 μL/well) are added and incubated at room temperature for 1 hour. The fluorescence intensity is measured at Ex/Em=540/620 nm (Cutoff=610 nm) with FlexStation fluorescence microplate reader.
Jurkat T leukemia cells are grown in RPMI 1640 media (Life Technologies, Inc.) and 10% FCS (Sigma Chemical Company) in a 5% CO2-95% humidity incubator at 37° C., and maintained at a cell density between 4 and 8×10^5 cells/ml. Cells were harvested at 200×g and resuspended at 1×10^6 cells/ml into RPMI 1640 media containing 10% FCS and 1 ml each were dispensed in 2-wells of a 6-well plate. The apoptosis inducer staurosporine is added at 0.5 μg/ml concentration and the plate is incubated for 2 hours at 37° C. in a 5% CO2-95% humidity incubator. Cells are incubated with 50 μM of substrate Compound 4 for 2 hours at 37° C. in serum-free RPMI medium. The samples are analyzed with a fluorescence microplate reader (top or bottom read mode) at Ex/Em=540/620 nm (Cutoff=610 nm).

[2] = test system: E. coli endotoxin; test: Detection of endotoxin with Limulus Amebocyte Lysate (LAL) and fluorogenic substrate; assay type: biochemical; details: Ex/Em=490/525 nm
Protocol: FIG. 5. Illustrates the detection of E. coli endotoxin with an exemplary compound. E. coli endotoxin is measured in a black/solid bottom 96-well plate with Compound 7. The fluorescence intensity is recorded using a Gemini microplate reader at Ex/Em=490/525 nm, cutoff=515 nm. As low as 0.001 EU/mL of E. coli endotoxin can be detected.
Endotoxin is the major component of the outer membrane of Gram-negative bacteria. endotoxin is a potent stimulator of the vertebrate innate immune system and can cause fever, septic shock and eventually death. It is recognized as a biomarker for the detection of bacterial pathogen invasion and is responsible for the development of inflammatory response and endotoxic shock in extreme cases. […] The LAL enzymatic cascade can be activated by endotoxin at pH 6.0 to 7.5, and the amount of activated enzyme present can be measured by its ability to cleave the fluorogenic and/or chromogenic substrate. […] The endotoxin activity is proportional to the fluorescence intensity of rhodamine 110 resulting from the hydrolysis of Compound 7. The concentration of endotoxin in a sample can be calculated from a standard curve. […] The fluorescence intensities of the test sample solutions are recorded with a fluorescence microplate reader at Ex/Em=490/525 nm within 10-30 minutes.

Row | Compound | cleavage of the caspase-3/7 substrate on induction of apoptosis [1] | lowest detectable E. coli endotoxin ([2]; 96-well plate, cutoff=515 nm) [EU/mL] | fluorescence of hydrolyzed product (rhodamine 110) after hydrolysis by LAL in the presence of endotoxins ([2]; LAL 100 U, 10 uM substrate)
1 | Compound 4 (DVED) | leads to cleavage | – | –
2 | CCC(C)C(NC(C)=O)C(=O)NC(CCC(=O)O)C(=O)NC(C)C(=O)NC(CCCNC(=N)N)C(=O)Nc1ccc2c(c1)Oc1cc(NC(=O)C(CCCNC(=N)N)NC(=O)C(C)NC(=O)C(CCC(=O)O)NC(=O)C(NC(C)=O)C(C)CC)ccc1C21OC(=O)c2ccccc21 (stereo not drawn) [Compound 7] (I: Ac-IEAR / II: Ac-IEAR; linker I:C-II:C via Rhodamine110; configuration not given here) | – | 0.001 | strong green fluorescence

Reference: US12663415B2, “Chromogenic and fluorogenic compounds and their use for biological detection” (AAT Bioquest, Inc., priority 2022, dated 2026)
